Test results: ChEMBL document CHEMBL3758085, “Synthesis and cytotoxicity of thieno[2,3-b]quinoline-2-carboxamide and cycloalkyl[b]thieno[3,2-e]pyridine-2-carboxamide derivatives” (Bioorg Med Chem, 2016)

Tests used:
MDA-MB-231 [1] = experiment: Antiproliferative activity against human MDA-MB-231 cells assessed as cell growth at 1 uM incubated for 3 days by 3H-thymidine incorporation assay relative to control; format: functional; settings: read-out: Activity
[2] = Antiproliferative activity against human HCT116 cells assessed as cell growth at 1 uM incubated for 3 days by 3H-thymidine incorporation assay relative to control; format: functional; settings: HCT-116, read-out: Activity
MDA-MB-468 [3] = experiment: Antiproliferative activity against human MDA-MB-468 cells assessed as cell growth at 1 uM incubated for 3 days by 3H-thymidine incorporation assay relative to control; format: functional; settings: read-out: Activity
MDA-MB-468 [4] = experiment: Antiproliferative activity against human MDA-MB-468 cells assessed as cell growth incubated for 3 days by 3H-thymidine incorporation assay relative to control; format: functional, cell-based
K562 = experiment: Antiproliferative activity against human K562 cells assessed as cell growth incubated for 3 days by 3H-thymidine incorporation assay relative to control; format: functional, cell-based
[5] = Antiproliferative activity against human HCT116 cells assessed as cell growth incubated for 3 days by 3H-thymidine incorporation assay relative to control; format: functional, cell-based; settings: HCT-116
MDA-MB-231 [6] = experiment: Antiproliferative activity against human MDA-MB-231 cells assessed as cell growth incubated for 3 days by 3H-thymidine incorporation assay relative to control; format: functional, cell-based

IC50 (MDA-MB-468 [4])	IC50 (K562)	IC50 (MDA-MB-231 [6])	SMILES	growth at 1 µM (MDA-MB-231 [1])	growth at 1 µM [2]	growth at 1 µM (MDA-MB-468 [3])	IC50 [5]
			Cc1cccc(NC(=O)c2cc3cc4cc(C)ccc4nc3s2)c1	105%	100%	84%	
0.148 µM	0.152 µM	0.204 µM	Cc1cccc(NC(=O)c2sc3nc4c(cc3c2N)CCCC4)c1C	4%	5%	3%	0.199 µM
			Nc1c(C(=O)Nc2cccc3ccccc23)sc2nc3c(cc12)CCC3	80%	92%	67%	
0.16 µM	0.21 µM	0.19 µM	Cc1c(Cl)cccc1NC(=O)c1sc2nc3c(cc2c1N)CCCCC3	13%	10%	3%	0.266 µM
			Cc1ccc2nc3sc(C(=O)Nc4ccccc4C)cc3cc2c1	104%	99%	89%	
			Nc1c(C(=O)Nc2ccc(F)cc2)sc2nc3c(cc12)CCCCCC3	100%	82%	65%	
			Cc1cc(C)c(NC(=O)c2sc3nc4c(cc3c2N)CCCCC4)c(C)c1	98%	99%	89%	
			Nc1c(C(=O)Nc2cccc(Cl)c2)sc2nc3c(cc12)CCC3	92%	87%	53%	
			COc1ccc(OC)c(NC(=O)c2sc3nc4c(cc3c2N)CCCCC4)c1	117%	98%	94%	
			Cc1ccccc1NC(=O)c1sc2nc3c(cc2c1N)CCCC3	70%	84%	53%	
			COc1ccc(NC(=O)c2sc3nc4c(cc3c2N)CCCCCC4)cc1	107%	106%	84%	
			Cc1ccc2cc3c(N)c(C(=O)Nc4ccccc4[N+](=O)[O-])sc3nc2c1	90%	102%	101%	
			Nc1c(C(=O)Nc2ccccc2Cl)sc2nc3c(cc12)CCCCC3	89%	92%	73%	
			CCc1cccc(CC)c1NC(=O)c1sc2nc3c(cc2c1N)CCCC3	115%	108%	116%	
			CCOc1ccc2nc3sc(C(=O)Nc4ccc(C(C)=O)cc4)c(N)c3cc2c1	97%	96%	87%	
			Nc1c(C(=O)Nc2cccc(C(F)(F)F)c2)sc2nc3c(cc12)CCCC3	108%	82%	41%	
			Nc1c(C(=O)Nc2cccc(Br)c2)sc2nc3c(cc12)CCC3	94%	93%	53%	
			Nc1c(C(=O)Nc2cccc(Br)c2)sc2nc3c(cc12)CCCCC3	92%	83%	45%	
			Nc1c(C(=O)Nc2ccccc2C(F)(F)F)sc2nc3c(cc12)CCCC3	128%	104%	93%	
			CCc1cccc(C)c1NC(=O)c1sc2nc3c(cc2c1N)CCCC3	84%	96%	67%	
			Nc1c(C(=O)Nc2ccc3ccccc3c2)sc2nc3c(cc12)CCCCC3	118%	103%	97%	

IC50 (MDA-MB-468 [4])	IC50 (K562)	IC50 (MDA-MB-231 [6])	SMILES	growth at 1 µM (MDA-MB-231 [1])	growth at 1 µM [2]	growth at 1 µM (MDA-MB-468 [3])	IC50 [5]
			Nc1c(C(=O)Nc2cccc(Br)c2)sc2nc3c(cc12)CCCC3	101%	85%	45%	
			CCc1ccccc1NC(=O)c1sc2nc3c(cc2c1N)CCCC3	89%	86%	63%	
			Cc1cc(C)c(NC(=O)c2sc3nc4c(cc3c2N)CCCC4)c(C)c1	97%	101%	93%	
			Cc1ccc2nc3sc(C(=O)Nc4cccnc4)cc3cc2c1	81%	102%	101%	
			Nc1c(C(=O)Nc2cccc(C(F)(F)F)c2)sc2nc3c(cc12)CCCCC3	94%	108%	92%	
			COc1ccc(NC(=O)c2sc3nc4c(cc3c2N)CCCC4)cc1	98%	99%	84%	
			Nc1c(C(=O)Nc2ccc3ccccc3c2)sc2nc3c(cc12)CCCC3	120%	100%	76%	
			Nc1c(C(=O)Nc2cc(C(F)(F)F)ccc2Cl)sc2nc3c(cc12)CCCCC3	105%	98%	106%	
			CC(=O)c1cccc(NC(=O)c2sc3nc4c(cc3c2N)CCCCCC4)c1	117%	85%	72%	
			Nc1c(C(=O)Nc2cccc([N+](=O)[O-])c2)sc2nc3c(cc12)CCCC3	71%	75%	44%	
			Nc1c(C(=O)Nc2cccc(C(F)(F)F)c2)sc2nc3c(cc12)CCC3	100%	90%	58%	
			Nc1c(C(=O)Nc2cccc([N+](=O)[O-])c2)sc2nc3c(cc12)CCC3	79%	79%	46%	
			Nc1c(C(=O)Nc2ccc(Cl)cc2)sc2nc3c(cc12)CCCCCC3	117%	94%	82%	
			Nc1c(C(=O)Nc2cccc(Cl)c2)sc2nc3c(cc12)CCCCC3	95%	86%	39%	
			Nc1c(C(=O)Nc2ccccc2C(F)(F)F)sc2nc3c(cc12)CCCCC3	124%	112%	100%	
			Nc1c(C(=O)Nc2cccc([N+](=O)[O-])c2)sc2nc3c(cc12)CCCCC3	67%	51%	18%	
			Nc1c(C(=O)Nc2ccc3ccccc3c2)sc2nc3c(cc12)CCC3	81%	94%	64%	
			Nc1c(C(=O)Nc2ccccc2)sc2nc3c(cc12)CCC3	90%	94%	76%	
			O=c1c2sc3ncccc3c2ncn1-c1ccccc1	107%	96%	101%	
			Nc1c(C(=O)Nc2ccccc2Cl)sc2nc3c(c(C(F)(F)F)c12)CCCCCC3	116%	112%	100%	
			COc1ccc(NC(=O)c2sc3nc4c(cc3c2N)CCCCCC4)cc1OC	102%	106%	107%	

IC50 (MDA-MB-468 [4])	IC50 (K562)	IC50 (MDA-MB-231 [6])	SMILES	growth at 1 µM (MDA-MB-231 [1])	growth at 1 µM [2]	growth at 1 µM (MDA-MB-468 [3])	IC50 [5]
			Cc1ccc2cc3cc(C(=O)Nc4cnc5ccccc5c4)sc3nc2c1	97%	99%	87%	
			COc1ccc(NC(=O)c2sc3nc4c(cc3c2N)CCCCCC4)c(OC)c1	119%	109%	110%	
			COc1ccc(OC)c(NC(=O)c2sc3nc4c(cc3c2N)CCCCCC4)c1	131%	107%	94%	
			COc1ccc(NC(=O)c2sc3nc4ccccc4cc3c2N)cc1	101%	97%	68%	
			Cc1ccc2nc3sc(C(=O)Nc4ccccc4)cc3cc2c1	92%	95%	81%	
			Nc1c(C(=O)Nc2ccc(Cl)c(Cl)c2)sc2nc3c(cc12)CCCCC3	115%	103%	77%	
			COc1ccc2nc3sc(C(=O)Nc4cc(Cl)ccc4OC)c(N)c3cc2c1	86%	100%	104%	
			CCCCOc1cccc(NC(=O)c2sc3nc4c(cc3c2N)CCCCC4)c1	100%	97%	53%	
			Cc1ccc2nc3sc(C(=O)Nc4cccc(F)c4)cc3cc2c1	103%	98%	91%	
			CC(=O)c1ccc(NC(=O)c2sc3nc4ccccc4cc3c2N)cc1	95%	93%	70%	
			Cc1ccc(C)c(NC(=O)c2cc3cc4cc(C)ccc4nc3s2)c1	103%	98%	77%	
			Nc1c(C(=O)Nc2cccc3ccccc23)sc2nc3c(cc12)CCCCC3	106%	93%	91%	
			Nc1c(C(=O)Nc2c(Cl)cccc2Cl)sc2nc3c(cc12)CCCC3	93%	100%	82%	
			Nc1c(C(=O)Nc2ccccc2)sc2nc3c(c(-c4ccco4)c12)CCCCC3	89%	65%	71%	
			COc1ccc(NC(=O)c2sc3nc4c(cc3c2N)CCCCC4)cc1OC	114%	98%	77%	
			Nc1c(C(=O)Nc2ccccc2F)sc2nc3c(cc12)CCCC3	92%	84%	48%	
			Cc1ccccc1NC(=O)c1sc2nc3c(cc2c1N)CCCCC3	43%	66%	25%	
			CCc1cccc(NC(=O)c2sc3nc4c(cc3c2N)CC(CC)CC4)c1 (stereo unspecified)	73%	73%	12%	
			CCOc1ccc2nc3sc(C(=O)Nc4ccc(Cl)cc4)c(N)c3cc2c1	97%	100%	93%	
